Assay results published in US20250302832A1, “PYRAZINE DERIVATIVES AND USES THEREOF” (FOGHORN THERAPEUTICS INC., priority 2022, published 2025).

Legend:
[1] = target: T1, HiBit-BRM fusion protein (Homo sapiens, UniProt P51531); assay: HiBiT-BRM cell-based degradation assay (Nano-Glo HiBiT lytic detection, 24 h); conditions: HeLa cell line expressing HiBiT-BRM; for DC50: read-out: BRM HiBit Degradation IC50
T1 construct: expressed in transfected cells
In short: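 Luminescence from LgBiT complementation quantified remaining HiBiT-BRM in stably expressing HeLa cells after 24 h compound exposure (top final dose 30 μM, 3-fold, 10 points, duplicate). Degradation expressed as percent relative to DMSO and a 2 μM reference degrader.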

[2] = target: T2, HiBit-BRG1 fusion protein (Homo sapiens, UniProt P51532); assay: HiBiT-BRG1 cell-based degradation assay (Nano-Glo HiBiT lytic detection, 24 h); conditions: HeLa cell line expressing HiBit-BRG1 and LgBit; for Dmax: read-out: BRG1 HiBit Degradation Maximum (%); for DC50: read-out: BRMG1 HiBit Degradation IC50
T2 construct: expressed in transfected cells
In short: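 Luminescence from HiBiT/LgBiT complementation after lytic detection reagent was read following 24 h compound exposure of HeLa cells stably carrying HiBiT-BRG1 plus LgBiT (5000 cells/well). Signal scaled to % degradation using DMSO-treated cells as 0% and cells given 2 μM known BRM/BRG1 degrader as 100%.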

T2 sequence (P51532 whole entry, the tested form may be a part): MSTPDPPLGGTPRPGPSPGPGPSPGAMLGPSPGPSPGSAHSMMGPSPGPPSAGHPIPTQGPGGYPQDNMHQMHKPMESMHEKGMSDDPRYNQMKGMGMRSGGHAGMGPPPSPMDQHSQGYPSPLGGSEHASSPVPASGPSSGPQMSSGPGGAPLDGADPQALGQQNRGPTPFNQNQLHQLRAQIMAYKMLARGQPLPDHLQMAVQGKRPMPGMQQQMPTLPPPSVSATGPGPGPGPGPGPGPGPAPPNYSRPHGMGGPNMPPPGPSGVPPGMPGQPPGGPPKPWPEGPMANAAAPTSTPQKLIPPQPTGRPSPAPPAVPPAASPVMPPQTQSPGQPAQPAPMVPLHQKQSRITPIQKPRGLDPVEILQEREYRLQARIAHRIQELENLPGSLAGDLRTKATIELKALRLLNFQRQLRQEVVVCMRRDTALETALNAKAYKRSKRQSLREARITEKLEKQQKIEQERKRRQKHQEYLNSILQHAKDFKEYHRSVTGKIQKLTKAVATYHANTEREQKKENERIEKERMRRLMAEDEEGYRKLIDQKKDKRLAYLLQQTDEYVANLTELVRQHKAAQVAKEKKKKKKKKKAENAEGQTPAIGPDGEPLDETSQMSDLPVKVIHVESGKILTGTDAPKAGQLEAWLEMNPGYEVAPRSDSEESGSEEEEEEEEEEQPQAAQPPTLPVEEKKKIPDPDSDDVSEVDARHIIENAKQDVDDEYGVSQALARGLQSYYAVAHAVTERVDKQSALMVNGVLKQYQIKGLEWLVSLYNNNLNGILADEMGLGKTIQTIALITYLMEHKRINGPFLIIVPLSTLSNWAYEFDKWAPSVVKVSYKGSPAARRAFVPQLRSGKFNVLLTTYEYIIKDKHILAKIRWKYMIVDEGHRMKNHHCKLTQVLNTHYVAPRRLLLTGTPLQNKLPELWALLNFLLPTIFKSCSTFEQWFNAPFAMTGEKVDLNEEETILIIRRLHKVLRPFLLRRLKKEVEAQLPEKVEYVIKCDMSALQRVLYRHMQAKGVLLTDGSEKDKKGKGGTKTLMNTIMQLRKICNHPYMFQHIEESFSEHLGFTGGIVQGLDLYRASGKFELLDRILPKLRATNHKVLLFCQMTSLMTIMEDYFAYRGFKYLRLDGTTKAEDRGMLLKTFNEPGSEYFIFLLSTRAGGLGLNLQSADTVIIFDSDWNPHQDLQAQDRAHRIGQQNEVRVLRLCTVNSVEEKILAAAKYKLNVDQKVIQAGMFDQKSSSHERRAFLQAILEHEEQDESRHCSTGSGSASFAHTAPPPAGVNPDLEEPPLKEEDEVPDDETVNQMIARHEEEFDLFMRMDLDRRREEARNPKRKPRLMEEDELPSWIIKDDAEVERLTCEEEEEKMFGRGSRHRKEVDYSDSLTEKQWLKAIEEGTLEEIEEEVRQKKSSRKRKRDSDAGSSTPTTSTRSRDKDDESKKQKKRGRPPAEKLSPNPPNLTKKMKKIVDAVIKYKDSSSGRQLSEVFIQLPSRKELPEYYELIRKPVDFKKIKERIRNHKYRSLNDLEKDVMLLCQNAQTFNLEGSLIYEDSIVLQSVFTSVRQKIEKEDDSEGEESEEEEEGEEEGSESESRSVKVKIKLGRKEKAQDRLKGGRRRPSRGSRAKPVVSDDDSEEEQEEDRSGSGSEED
T1 sequence (P51531 whole entry, the tested form may be a part): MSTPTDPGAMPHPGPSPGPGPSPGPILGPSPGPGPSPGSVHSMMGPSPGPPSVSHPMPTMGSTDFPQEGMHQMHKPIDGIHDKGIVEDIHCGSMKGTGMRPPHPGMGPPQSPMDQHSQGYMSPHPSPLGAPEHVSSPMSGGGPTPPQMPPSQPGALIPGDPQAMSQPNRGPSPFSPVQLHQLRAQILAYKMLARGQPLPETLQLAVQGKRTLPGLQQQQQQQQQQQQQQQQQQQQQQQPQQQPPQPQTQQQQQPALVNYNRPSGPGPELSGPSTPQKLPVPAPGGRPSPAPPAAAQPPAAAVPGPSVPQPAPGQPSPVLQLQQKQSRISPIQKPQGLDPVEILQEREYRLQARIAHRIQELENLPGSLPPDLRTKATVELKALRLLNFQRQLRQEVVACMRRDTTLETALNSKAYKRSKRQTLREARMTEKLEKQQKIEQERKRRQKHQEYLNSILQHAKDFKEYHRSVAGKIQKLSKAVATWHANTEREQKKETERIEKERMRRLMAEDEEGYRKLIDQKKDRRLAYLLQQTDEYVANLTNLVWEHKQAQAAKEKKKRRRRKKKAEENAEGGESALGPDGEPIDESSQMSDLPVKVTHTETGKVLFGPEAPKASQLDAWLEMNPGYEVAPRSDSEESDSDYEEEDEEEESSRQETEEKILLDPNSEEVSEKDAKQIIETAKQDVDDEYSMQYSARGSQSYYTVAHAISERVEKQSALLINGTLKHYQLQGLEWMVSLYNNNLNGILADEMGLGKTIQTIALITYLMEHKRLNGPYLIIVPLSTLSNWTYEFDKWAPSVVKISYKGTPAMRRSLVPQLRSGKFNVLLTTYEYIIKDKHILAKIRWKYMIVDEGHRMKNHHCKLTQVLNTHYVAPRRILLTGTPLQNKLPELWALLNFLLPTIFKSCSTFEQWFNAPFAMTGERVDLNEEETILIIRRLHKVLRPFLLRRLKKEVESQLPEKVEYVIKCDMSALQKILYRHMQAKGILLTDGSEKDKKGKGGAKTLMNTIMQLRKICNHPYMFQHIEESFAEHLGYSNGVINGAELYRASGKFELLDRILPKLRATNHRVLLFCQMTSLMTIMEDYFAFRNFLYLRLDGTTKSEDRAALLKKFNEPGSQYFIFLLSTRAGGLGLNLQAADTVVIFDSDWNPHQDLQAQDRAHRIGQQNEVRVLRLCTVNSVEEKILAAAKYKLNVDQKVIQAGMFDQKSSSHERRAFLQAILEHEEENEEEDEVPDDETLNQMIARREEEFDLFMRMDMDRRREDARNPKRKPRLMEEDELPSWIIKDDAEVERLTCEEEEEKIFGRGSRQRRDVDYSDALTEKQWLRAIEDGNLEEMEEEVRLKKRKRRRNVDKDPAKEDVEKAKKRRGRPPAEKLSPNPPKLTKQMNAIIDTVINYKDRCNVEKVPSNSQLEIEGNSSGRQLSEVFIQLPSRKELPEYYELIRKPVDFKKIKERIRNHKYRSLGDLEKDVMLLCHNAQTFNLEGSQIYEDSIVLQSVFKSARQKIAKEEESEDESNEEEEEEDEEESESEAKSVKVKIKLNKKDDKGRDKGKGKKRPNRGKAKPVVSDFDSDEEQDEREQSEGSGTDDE

Row | SMILES | BRM HiBit Degradation Maximum (%) [1] | DC50 [1] | Dmax [2] | DC50 [2]
1 | Cc1ncsc1-c1ccc([C@H](C)NC(=O)[C@@H]2C[C@@H](O)CN2C(=O)[C@@H](c2cc(-c3cnc(N4CC[C@@H](c5cc6nnc(-c7cccc(Cl)c7O)cc6n5C5CC5)C4)nc3)no2)C(C)C)cc1 [Compound 69, (2S,4R)-1-((R)-2-(3-(2-((R)-3-(3-(3-chloro-2-hydroxyphenyl)-5-cyclopropyl-5H-pyrrolo[3,2-c]pyridazin-6-yl)pyrrolidin-1-yl)pyrimidin-5-yl)isoxazol-5-yl)-3-methylbutanoyl)-4-hydroxy-N-((S)-1-(4-(4-methylthiazol-5-yl)phenyl)ethyl)pyrrolidine-2-carboxamide] | A (“A” indicates maximum degradation ≥75%) | < 10 nM | < 50% | 
2 | Cc1ncsc1-c1ccc([C@H](C)NC(=O)[C@@H]2C[C@@H](O)CN2C(=O)[C@@H](c2cc(N3CCC(C(=O)N4CC(c5cc6nnc(-c7ccccc7O)cc6[nH]5)C4)CC3)no2)C(C)C)cc1 [Compound 6] | A (“A” indicates maximum degradation ≥75%) | > 10 nM | > 75% | > 100 nM
3 | Cc1ncsc1-c1ccc([C@H](C)NC(=O)[C@@H]2C[C@@H](O)CN2C(=O)[C@@H](c2cc(-c3cnc(N4CC[C@@H](c5cc6nnc(-c7ccccc7O)cc6n5CC5CC5)C4)nc3)no2)C(C)C)cc1 [Compound 114, (2S,4R)-1-((R)-2-(3-(2-((R)-3-(5-(cyclopropylmethyl)-3-(2-hydroxyphenyl)-5H-pyrrolo[3,2-c]pyridazin-6-yl)pyrrolidin-1-yl)pyrimidin-5-yl)isoxazol-5-yl)-3-methylbutanoyl)-4-hydroxy-N-((S)-1-(4-(4-methylthiazol-5-yl)phenyl)ethyl)pyrrolidine-2-carboxamide] | A (“A” indicates maximum degradation ≥75%) | < 10 nM | > 75% | > 10 nM
4 | Cc1ncsc1-c1ccc([C@H](C)NC(=O)[C@@H]2C[C@@H](O)CN2C(=O)[C@@H](c2cc(N3CC4(CCC(c5cc6nnc(-c7ccccc7O)cc6n5C5CC5)CC4)C3)no2)C(C)C)cc1 [Compound 87, (2S,4R)-1-((R)-2-(3-(7-(5-cyclopropyl-3-(2-hydroxyphenyl)-5H-pyrrolo[3,2-c]pyridazin-6-yl)-2-azaspiro[3.5]nonan-2-yl)isoxazol-5-yl)-3-methylbutanoyl)-4-hydroxy-N-((S)-1-(4-(4-methylthiazol-5-yl)phenyl)ethyl)pyrrolidine-2-carboxamide] | A (“A” indicates maximum degradation ≥75%) | < 10 nM | > 75% | < 10 nM
5 | CC(C)C(C(=O)N1C[C@H](O)C[C@H]1C(=O)NC1CC1)c1cc(N2CC3(CC(c4cc5nnc(-c6ccccc6O)cc5n4C4CCC4)C3)C2)no1 (stereo partly drawn) [Compound 56, (2S,4R)-1-(2-(3-(6-(5-cyclobutyl-3-(2-hydroxyphenyl)-5H-pyrrolo[3,2-c]pyridazin-6-yl)-2-azaspiro[3.3]heptan-2-yl)isoxazol-5-yl)-3-methylbutanoyl)-N-cyclopropyl-4-hydroxypyrrolidine-2-carboxamide] | A (“A” indicates maximum degradation ≥75%) | > 10 nM | < 50% | 
6 | Cc1ncsc1-c1ccc([C@H](C)NC(=O)[C@@H]2C[C@@H](O)CN2C(=O)[C@@H](c2cc(-c3cnc(N4CC[C@H](c5cc6nnc(-c7cccc(F)c7O)cc6n5C5CC5)C4)nc3)no2)C(C)C)cc1 [Compound 109, (2S,4R)-1-((R)-2-(3-(2-((S)-3-(5-cyclopropyl-3-(3-fluoro-2-hydroxyphenyl)-5H-pyrrolo[3,2-c]pyridazin-6-yl)pyrrolidin-1-yl)pyrimidin-5-yl)isoxazol-5-yl)-3-methylbutanoyl)-4-hydroxy-N-((S)-1-(4-(4-methylthiazol-5-yl)phenyl)ethyl)pyrrolidine-2-carboxamide] | A (“A” indicates maximum degradation ≥75%) | < 10 nM | < 50% | 
7 | Cc1ncsc1-c1ccc([C@H](C)NC(=O)[C@@H]2C[C@@H](O)CN2C(=O)[C@@H](c2cc(OCCN3CCC(c4cc5nnc(-c6ccccc6O)cc5n4C)CC3)no2)C(C)C)cc1 [Compound 20, (2S,4R)-4-hydroxy-1-[(2R)-2-[3-(2-{4-[3-(2-hydroxyphenyl)-5-methylpyrrolo[3,2-c]pyridazin-6-yl]piperidin-1-yl}ethoxy)-1,2-oxazol-5-yl]-3-methylbutanoyl]-N-[(1S)-1-[4-(4-methyl-1,3-thiazol-5-yl)phenyl]ethyl]pyrrolidine-2-carboxamide] | A (“A” indicates maximum degradation ≥75%) | < 10 nM | > 75% | < 10 nM
8 | Cc1ncsc1-c1ccc([C@H](C)NC(=O)[C@@H]2C[C@@H](O)CN2C(=O)[C@@H](c2cc(N3CCC4(CC3)CC(c3cc5nnc(-c6ccccc6O)cc5n3C)C4)no2)C(C)C)cc1 [Compound 113, (2S,4R)-4-hydroxy-1-((R)-2-(3-(2-(3-(2-hydroxyphenyl)-5-methyl-5H-pyrrolo[3,2-c]pyridazin-6-yl)-7-azaspiro[3.5]nonan-7-yl)isoxazol-5-yl)-3-methylbutanoyl)-N-((S)-1-(4-(4-methylthiazol-5-yl)phenyl)ethyl)pyrrolidine-2-carboxamide] | A (“A” indicates maximum degradation ≥75%) | < 10 nM | > 50% | > 10 nM
9 | Cc1ncsc1-c1ccc([C@H](C)NC(=O)[C@@H]2C[C@@H](O)CN2C(=O)[C@@H](c2cc(N3CC4(CC(c5cc6nnc(-c7ccccc7O)cc6n5C5CC5)C4)C3)no2)C(C)C)cc1 [Compound 78, (2S,4R)-1-((R)-2-(3-(6-(5-cyclopropyl-3-(2-hydroxyphenyl)-5H-pyrrolo[3,2-c]pyridazin-6-yl)-2-azaspiro[3.3]heptan-2-yl)isoxazol-5-yl)-3-methylbutanoyl)-4-hydroxy-N-((S)-1-(4-(4-methylthiazol-5-yl)phenyl)ethyl)pyrrolidine-2-carboxamide] | A (“A” indicates maximum degradation ≥75%) | < 10 nM | < 50% | 
10 | Cc1ncsc1-c1ccc([C@H](C)NC(=O)[C@@H]2C[C@@H](O)CN2C(=O)[C@@H](c2cc(OCCN3CCN(c4cc5nnc(-c6ccccc6O)cc5n4C)CC3)no2)C(C)C)cc1 [Compound 27, (2S,4R)-4-hydroxy-1-[(2R)-2-[3-(2-{4-[3-(2-hydroxyphenyl)-5-methylpyrrolo[3,2-c]pyridazin-6-yl]piperazin-1-yl}ethoxy)-1,2-oxazol-5-yl]-3-methylbutanoyl]-N-[(1S)-1-[4-(4-methyl-1,3-thiazol-5-yl)phenyl]ethyl]pyrrolidine-2-carboxamide] | A (“A” indicates maximum degradation ≥75%) | < 10 nM | > 75% | > 10 nM
11 | Cc1ncsc1-c1ccc([C@H](C)NC(=O)[C@@H]2C[C@@H](O)CN2C(=O)[C@@H](c2cc(-c3cc(N4CC[C@@H](c5cc6nnc(-c7ccccc7O)cc6n5C5CC5)C4)ccn3)no2)C(C)C)cc1 (single isomer, unassigned) [Compound 91] | A (“A” indicates maximum degradation ≥75%) | > 10 nM | < 50% | 
12 | Cc1ncsc1-c1ccc([C@H](C)NC(=O)[C@@H]2C[C@@H](O)CN2C(=O)[C@@H](c2cc(N3CC4(CC(c5cc6nnc(-c7ccccc7O)cc6n5C)C4)C3)no2)C(C)C)cc1 [Compound 67, (2S,4R)-4-hydroxy-1-((R)-2-(3-(6-(3-(2-hydroxyphenyl)-5-methyl-5H-pyrrolo[3,2-c]pyridazin-6-yl)-2-azaspiro[3.3]heptan-2-yl)isoxazol-5-yl)-3-methylbutanoyl)-N-((S)-1-(4-(4-methylthiazol-5-yl)phenyl)ethyl)pyrrolidine-2-carboxamide] | A (“A” indicates maximum degradation ≥75%) | < 10 nM | > 50% | > 10 nM
13 | Cc1ncsc1-c1ccc([C@H](C)NC(=O)[C@@H]2C[C@@H](O)CN2C(=O)[C@H](c2cc(-c3cnc(N4CCC(c5cc6nnc(-c7ccccc7O)cc6n5C5(C)CC5)CC4)nc3)no2)C(C)C)cc1 [Compound 42] | B (“B” indicates maximum degradation ≥50%) | > 10 nM | < 50% | 
14 | Cc1ncsc1-c1ccc([C@H](C)NC(=O)[C@@H]2C[C@@H](O)CN2C(=O)[C@H](c2cc(-c3cnc(N4CCC(c5cc6nnc(-c7ccccc7O)cc6n5C(C)C)CC4)nc3)no2)C(C)C)cc1 [Compound 44] | B (“B” indicates maximum degradation ≥50%) | < 10 nM | < 50% | 
15 | Cc1ncsc1-c1ccc([C@H](C)NC(=O)[C@@H]2C[C@@H](O)CN2C(=O)[C@@H](c2cc(OCCN3CC(c4cc5nnc(-c6ccccc6O)cc5n4C)C3)no2)C(C)C)cc1 [Compound 8, (2S,4R)-4-hydroxy-1-((R)-2-(3-(2-(3-(3-(2-hydroxyphenyl)-5-methyl-5H-pyrrolo[3,2-c]pyridazin-6-yl)azetidin-1-yl)ethoxy)isoxazol-5-yl)-3-methylbutanoyl)-N—((S)-1-(4-(4-methylthiazol-5-yl)phenyl)ethyl) pyrrolidine-2-carboxamide] | A (“A” indicates maximum degradation ≥75%) | < 10 nM | > 75% | > 10 nM
